PMC3791940, “Compounds from Gum Ammoniacum with Acetylcholinesterase Inhibitory Activity” (Scientia Pharmaceutica, 2013)
Where two headings read alike, the source gives them in different places.

Target: T1, AChE from electric eel (Electrophorus electricus, UniProt O42275)
T1 construct: purchased Sigma (St. Louis, USA)
Assay: Quantitative colorimetric microplate assay based on Ellman's method for AChE inhibitory activity
Type: biochemical
Details: for IC50: read-out: IC50, inhibition of AchE (converted)
Procedure: The tested concentrations of the samples ranged from 1.56 to 200 μg/mL. Based on the resulting curves, the IC50 values for AChE inhibition were calculated using the respective curves’ equations (Table 1).
Acetylthiocholine iodide (ATCI) and chelidonine were obtained from Fluka (Buchs, Switzerland). Fast Blue B salt (FBS) and silica gel 60 were from Merck (Darmstadt, Germany). The solvents MeOH, EtOAc, CH2Cl2, and CHCl3 were purchased from VWR (Vienna, Austria). Two different buffer systems were used (buffer A: 50 mM Tris-HCl, pH 7.9 containing 0.1% BSA; buffer B: 50 mM Tris-HCl, pH 7.9 containing 0.1 M NaCl and 0.02 M MgCl2·6H2O).
A quantitative colorimetric assay based on Ellman’s method was used to measure the AChE inhibitory activities of the substances. Briefly, in a 96-well plate, 25 μL of 15 mM ATCI, 125 μL of 3 mM DTNB in buffer B, 50 μL of buffer A, and 25 μL of the extract or the isolated substances (from 15.6 μg/mL to 2.0 mg/mL in 10% DMSO) were thoroughly mixed and the absorbance was read at 405 nm five times every 15 s. Finally, 25 μL of AChE (0.22 U/mL in buffer A) were added and the plate was incubated at 25°C for 10 minutes. Then the absorbance was measured again eight times every 15 s. A 10% DMSO solution was used as the negative control. To compensate for any increase in absorbance due to the color of the extracts or spontaneous hydrolysis of the substrate, the absorbance before the addition of the enzyme was subtracted from the absorbance after adding the enzyme. The assay was repeated three times for every concentration.

[1] = n=3, 25°C, 10 min incubation, tested 1.56 to 200 μg/mL
[2] = n=3, same values given in molar unit

T1 sequence (O42275 24-633): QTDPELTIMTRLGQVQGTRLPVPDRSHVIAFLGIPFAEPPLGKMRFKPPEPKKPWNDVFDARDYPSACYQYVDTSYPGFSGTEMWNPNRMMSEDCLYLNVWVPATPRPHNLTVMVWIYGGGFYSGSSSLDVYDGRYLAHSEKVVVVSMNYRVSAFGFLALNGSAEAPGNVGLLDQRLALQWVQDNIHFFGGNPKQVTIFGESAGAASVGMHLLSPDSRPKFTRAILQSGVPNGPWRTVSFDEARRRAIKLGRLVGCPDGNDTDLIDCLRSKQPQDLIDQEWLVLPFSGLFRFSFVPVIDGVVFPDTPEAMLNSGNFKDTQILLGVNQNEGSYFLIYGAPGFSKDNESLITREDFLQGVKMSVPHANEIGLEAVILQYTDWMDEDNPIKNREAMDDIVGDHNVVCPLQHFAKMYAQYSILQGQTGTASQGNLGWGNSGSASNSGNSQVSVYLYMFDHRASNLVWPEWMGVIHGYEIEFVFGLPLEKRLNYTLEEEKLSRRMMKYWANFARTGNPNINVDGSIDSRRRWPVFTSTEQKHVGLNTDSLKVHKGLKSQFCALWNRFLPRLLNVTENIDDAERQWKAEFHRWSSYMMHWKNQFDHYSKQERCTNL

Row | SMILES | times more active than compounds 1, 2 and 4 (AChE inhibition) (comparison of IC50 values) | IC50 [1] [µM] | IC50 [2] [µM] | AChE inhibitory activity (in words)
1 | CC(C)=CCC/C(C)=C/CC/C(C)=C/CCC(=O)c1ccc(O)cc1O [Compound 3, (4E,8E)-1-(2,4-dihydroxyphenyl)-5,9,13-trimethyltetradeca-4,8,12-trien-1-one] | about 10 times | 23.4 | 23.5 | –
2 | C=C[C@]1(C)CC[C@@H](C(C)C(O)C(=O)C=C(C)C)C12C(=O)Oc1cc(OC)ccc1C2=O (stereo partly drawn) [Compound 1, (2′S,5′S)-2′-ethenyl-5′-(3hydroxy-6-methyl-4-oxohept-5-en-2-yl)-7-methoxy-2′-methyl-4H-spiro[chromene-3,1′-cyclopentane]-2,4-dione] | – | 181 | 181 | only low activities
3 | C=C[C@]1(C)CC[C@H]([C@@H](C)C(=O)[C@H](O)C=C(C)C)C12C(=O)Oc1cc(OC)ccc1C2=O (stereo partly drawn) [Compound 2, (2′S,5′R)-2′-ethenyl-5′-[(2R,4R)-4-hydroxy-6-methyl-3-oxohept-5-en-2-yl]-7-methoxy-2′-methyl-4H-spiro[chromene-3,1′-cyclopentane]-2,4-dione] | – | 236 | 237 | only low activities
4 | CC(C)=CCC/C(C)=C/CC/C(C)=C/Cc1c(O)c2ccc(O)cc2oc1=O [Compound 4, 4,7-dihydroxy-3-[(2E,6E)-3,7,11-trimethyldodeca-2,6,10-trien-1-yl]-2H-chromen-2-one] | – | 201 | 201 | only low activities
